Broadly, the IC50 is the midpoint of a concentration-inhibition curve.

One assay deals with Substance-P receptor (Homo sapiens, UniProt P25103). As to the kind of experiment: Binding affinity for NK1 receptor binding sites in human lymphoma IM9 cells by using [125I]-Bolton-Hunter substance P as radioligand. The format is cell-based, IM-9.
For assay [1], the target named is T1, Neuromedin-K receptor (Cavia porcellus, UniProt P30098).
T1 sequence (P30098 whole entry): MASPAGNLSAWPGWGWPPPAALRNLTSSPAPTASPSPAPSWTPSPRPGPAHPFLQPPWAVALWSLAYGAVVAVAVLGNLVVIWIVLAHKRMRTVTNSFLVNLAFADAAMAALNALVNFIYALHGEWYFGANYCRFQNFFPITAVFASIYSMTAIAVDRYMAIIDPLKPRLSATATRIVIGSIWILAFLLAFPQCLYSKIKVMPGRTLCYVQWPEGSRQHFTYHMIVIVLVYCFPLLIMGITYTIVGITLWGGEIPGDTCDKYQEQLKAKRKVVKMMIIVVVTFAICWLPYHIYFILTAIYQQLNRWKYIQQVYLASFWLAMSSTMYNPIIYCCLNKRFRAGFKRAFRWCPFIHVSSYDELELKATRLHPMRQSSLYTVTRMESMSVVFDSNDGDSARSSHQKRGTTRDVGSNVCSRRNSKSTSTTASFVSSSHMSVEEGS
The assay is described as follows: Binding affinity for NK3 receptor binding sites in guinea pig cortical membranes by using [125I][MePhe7]-NKB as radioligand. The format is cell membranes.

For assay [2], the species on record is Cavia porcellus. The assay is described as follows: In vitro inhibition of senktide-induced increases in spontaneous firing of guinea pig habenula neurones. The class given is functional.
In the next assay the target is T2, Substance-K receptor (Mesocricetus auratus, UniProt P51144).
T2 sequence (P51144 whole entry): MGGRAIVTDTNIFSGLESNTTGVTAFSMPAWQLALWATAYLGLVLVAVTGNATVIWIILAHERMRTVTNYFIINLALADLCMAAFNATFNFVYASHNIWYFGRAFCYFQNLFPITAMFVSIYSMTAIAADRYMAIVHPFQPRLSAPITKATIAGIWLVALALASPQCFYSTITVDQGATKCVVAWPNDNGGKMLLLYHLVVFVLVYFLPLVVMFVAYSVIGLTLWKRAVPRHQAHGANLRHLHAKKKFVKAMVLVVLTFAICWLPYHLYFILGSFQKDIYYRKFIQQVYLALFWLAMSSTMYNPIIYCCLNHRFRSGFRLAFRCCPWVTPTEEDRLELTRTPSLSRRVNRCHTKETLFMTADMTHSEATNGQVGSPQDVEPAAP
The assay is described as follows: Binding affinity for NK2 receptor binding sites in membranes prepared from hamster urinary bladder by using [125I]NKA as radioligand.

In another assay the test system is CHO. As to the kind of experiment: In vitro inhibition of senktide-evoked increases in intracellular calcium levels in CHO cells using the fluorescent indicator Fura2. The class given is functional, Cricetulus griseus. In general terms: Calcium flux is commonly read through the fluorescence of an indicator in the cells.
The species entered for assay [3] is Cavia porcellus. As to the kind of experiment: In vitro inhibition of Isometric contractions from longitudinal muscle myenteric plexus preparations with responses to the NK3 receptor selective agonist senktide. The format is functional.
Assay [4] addresses T3, Neuromedin-K receptor (Homo sapiens, UniProt P29371).
T3 sequence (P29371 whole entry): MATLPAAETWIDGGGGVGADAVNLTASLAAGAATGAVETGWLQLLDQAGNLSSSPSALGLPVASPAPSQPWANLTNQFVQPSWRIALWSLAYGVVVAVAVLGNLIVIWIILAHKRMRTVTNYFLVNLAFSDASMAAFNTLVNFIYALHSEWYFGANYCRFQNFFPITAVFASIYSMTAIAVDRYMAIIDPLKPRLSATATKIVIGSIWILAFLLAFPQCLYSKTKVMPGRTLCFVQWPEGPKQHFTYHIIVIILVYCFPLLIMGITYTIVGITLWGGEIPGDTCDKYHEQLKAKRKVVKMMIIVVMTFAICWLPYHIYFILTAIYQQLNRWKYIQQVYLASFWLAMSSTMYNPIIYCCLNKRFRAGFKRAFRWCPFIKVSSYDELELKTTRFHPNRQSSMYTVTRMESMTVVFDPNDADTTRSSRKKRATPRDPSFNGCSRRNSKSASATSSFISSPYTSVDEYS
The assay is described as follows: Displacement of [125I][MePhe]-NKB from human NK3 receptor expressed in CHO cells. The format is cell-based.

Sequence of Substance-P receptor (P25103 whole entry): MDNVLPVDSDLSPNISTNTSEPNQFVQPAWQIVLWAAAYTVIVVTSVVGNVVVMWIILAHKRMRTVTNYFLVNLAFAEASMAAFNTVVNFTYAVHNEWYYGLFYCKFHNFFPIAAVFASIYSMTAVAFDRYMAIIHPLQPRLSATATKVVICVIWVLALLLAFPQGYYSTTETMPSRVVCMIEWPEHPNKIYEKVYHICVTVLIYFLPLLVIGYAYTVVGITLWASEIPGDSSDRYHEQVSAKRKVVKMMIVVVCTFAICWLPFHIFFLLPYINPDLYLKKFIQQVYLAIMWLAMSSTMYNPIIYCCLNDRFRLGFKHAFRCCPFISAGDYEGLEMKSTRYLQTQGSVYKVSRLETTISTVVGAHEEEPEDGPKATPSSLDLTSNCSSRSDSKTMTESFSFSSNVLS

With `CC(C)(C)OC(=O)N[C@@](C)(Cc1ccccc1)C(=O)N[C@H](Cc1ccccc1)C(=O)NCCCCCCCCC(N)=O`, the 50% inhibitory concentration (IC50) came to 10 µM at Substance-P receptor, 0.015 µM at Neuromedin-K receptor [1] and 5.02 µM on Substance-K receptor. The Ke in the assay listed under Cavia porcellus [2] amounted to 25 nM; with CHO, 15 nM; in the assay listed under Cavia porcellus [3], 13 nM.
For `CC(C)(C)OC(=O)N[C@@H](Cc1ccccc1)C(=O)N[C@](C)(Cc1ccccc1)C(=O)NCCCCCCCNC(N)=O`, in the assay on CHO, the Ke is recorded as 7 nM.
As for `CC(C)(C)OC(=O)N[C@@](C)(Cc1ccccc1)C(=O)N[C@H](Cc1ccccc1)C(=O)NCCCCCCCCO`, the half-maximal inhibitory concentration (IC50) on Substance-P receptor amounted to 10 µM.
In the case of `COCCCCCCCCNC(=O)C(Cc1ccccc1)NC(=O)[C@](C)(Cc1ccccc1)NC(=O)OC(C)(C)C` (some centres undefined), the IC50 on Neuromedin-K receptor [4] turned out to be 0.102 µM. This lies in the sub-micromolar range.

The record behind these values is ChEMBL document CHEMBL1127709, “The rational development of small molecule tachykinin NK3 receptor selective antagonists - the utilisation of a dipeptide chemical library in drug design” (Bioorg Med Chem Lett, 1994).
